From paper PMC11887451, “Leveraging Immunogenic Cell Death to Enhance the Immune Response against Malignant Pleural Mesothelioma Tumors” (Journal of the American Chemical Society, 2025)

What was measured:
[1] = tested on: murine malignant mesothelioma cell line AB12; experiment: MTT cytotoxicity assay, 72 h, AB12; format: cell-based, mouse; conditions: exposure time 72 h
[2] = tested on: human malignant mesothelioma cell line JU77; experiment: MTT cytotoxicity assay, 72 h, JU77; format: cell-based; conditions: exposure time 72 h
[3] = tested on: human malignant mesothelioma cell line LO68; experiment: MTT cytotoxicity assay, 72 h, LO68; format: cell-based; conditions: exposure time 72 h
Description: (§1) Human malignant mesothelioma cancer cell lines JU77 and LO68 were obtained from Cell Bank Australia (Children's Medical Research Institute, Westmead, Australia). Mouse malignant mesothelioma cancer cell line AB12, human nonmalignant mesothelioma cancer cell line Met5A (mesothelial cells), mouse macrophage cell line J774 and human monocytic cell line THP-1 were obtained from American Type Culture Collection (ATCC) (Rockville, MD, USA). Human malignant mesothelioma cell lines VMC23 (epithelial), Meso82 (sarcomatous), Meso92 (biphasic), were kindly provided by Prof. Walter Berger (Medical University of Vienna). All cells except for J774 were cultured in RPMI and J774 cells were cultured in DMEM. Both types of media were supplemented with 10% FBS and 1% penicillin-streptomycin (10,000 U/mL). Cells were grown in tissue culture flasks (75 cm2 and 25 cm2, SPL Life Sciences Co., Ltd., Korea). All cell lines were grown at 37 °C in a humidified atmosphere of 95% air and 5% CO 2 and passaged when they reached 80–90% confluency. All Au stock solutions were prepared in 1% DMSO in the respected medium, ensuring that cell viability was not inhibited.
(§2) The cytotoxicity of compounds was determined using an MTT colorimetric test. The cells were harvested from culture flasks by trypsinization and seeded into Cellstar 96 -well microculture plates (Greiner Bio -One) at the seeding density of 6000 cells per well (6 × 10^4 cells/mL). After
(§3) the cells were allowed to resume exponential growth for 16 h, they were exposed to drugs at
(§4) different concentrations in media for 72 h. The drugs were diluted in a complete medium at the desired concentration added to each well (100 μL) and serially diluted in other wells. After exposure for 72 h, the media was replaced with MTT in media (5 mg/mL, 100 μL/well) and
(§5) incubated for an additional 50 min. Subsequently, the medium was aspirated, and the purple formazan crystals formed in viable cells were dissolved in DMSO (100 μL/well). Optical densities were measured at 570 nm using a BioTek Synergy H1 microplate and MultiskanTM SkyHigh plate readers. The quantity of viable cells was expressed in terms of treated/control (T/C) values in comparison to untreated control cells, and 50% inhibitory concentrations (IC 50) were calculated from concentration-effect curves by interpolation. An evaluation was based on means from at least three independent experiments, each comprising three replicat es per
(§6) DMSO had not impact on the cell viability at the concentrations used.

[4] = tested on: patient-derived VMC23 cell line (epithelioid MPM); experiment: MTT cytotoxicity assay, 72 h, VMC23; format: cell-based, human; conditions: exposure time 72 h
[5] = tested on: patient-derived Meso84 cell line (sarcomatoid MPM); experiment: MTT cytotoxicity assay, 72 h, Meso84; format: cell-based, human; conditions: exposure time 72 h
Description: as §1, §2, §3, §4, §5, §6

[6] = tested on: patient-derived Meso92 cell line (biphasic MPM); experiment: MTT cytotoxicity assay, 72 h, Meso92; format: cell-based, human; conditions: exposure time 72 h
[7] = tested on: human nonmalignant mesothelioma cell line Met5A; experiment: MTT cytotoxicity assay, 72 h, Met5A; format: cell-based; conditions: exposure time 72 h
[8] = Aqueous stability by RP-HPLC in 1:1 DMSO:H2O over 72 h; format: physicochemical; conditions: room temperature
Experimental: The aqueous stability of the Au(III)–DTC complexes was assessed by monitoring their RP-HPLC profiles in a 1:1 DMSO:H2O mixture at room temperature over a 3-day period (Supplementary Figures 112–146).
Determination of the purity of cyclometalated Au( III) complexes was performed using analytical HPLC on a Shimadzu Prominence System equipped with a DGU -20A3 Degasser, two LC-20AD Liquid Chromatography Pump, a SPD-20A UV/Vis Detector and a Shim Pack GVP-ODS 2.0 mm 18 column ([…], 120Å, 250 mm × 4.60 mm i.d.). The analysis was conducted at r.t. with a flow rate of 1.0 mL/min and detection at 254 and 280 nm. Mobile phase A was H2O + 0.1% Trifluoroacetic acid (TFA) while mobile phase B is ACN + 0.1% TFA. The gradient program parameters were as follows: mobil e phase B was increased from 30 to 95% over 30 min. 95% mobile phase B was maintained for 10 min, 95 to 30% over 5 min, and finally returned to 30% for 10 min for the next analysis. LogP values of the complexes were calculated based on the HPLC retention times derived from the calibration standard curve. The calibration standard curve was established using 2-butanone, phenylacetonitrile, anisole, ethyl benzoate, benzophenone, diphenyl ether and triphenylamine. To conduct an aqueous stability study, the HPLC profiles of the sample stock solutions were diluted to a 1:1 ratio of DMSO to […]
water. […]

| SMILES | IC50 [1] [µM] | IC50 [2] [µM] | IC50 [3] [µM] | IC50 [4] [µM] | IC50 [5] [µM] | IC50 [6] [µM] | IC50 [7] [µM] | hydrolysis over the 72-h period [8] | minor RP-HPLC peak, share of the total area after 24 h [8] [%] | minor RP-HPLC peak, share of the total area after 72 h [8] |
| --- | --- | --- | --- | --- | --- | --- | --- | --- | --- | --- |
| C[N+](C)=C1[S][Au-]2([S]1)[c]1ccccc1C(=O)c1cccc[n+]12.F[P-](F)(F)(F)(F)F (stereo not shown) [3A] | 0.14 ± 0.04 | 1.9 ± 0.5 | 0.99 ± 0.19 | 0.64 ± 0.06 | 1.2 ± 0.2 | 0.53 ± 0.11 | 0.44 ± 0.13 |  |  |  |
| CC[N+](CC)=C1[S][Au-]2([S]1)[c]1ccccc1C(OC)c1cccc[n+]12.F[P-](F)(F)(F)(F)F (racemic) [4B] | 0.33 ± 0.1 | 4.8 ± 0.7 | 2.9 ± 0.8 | 7.3 ± 1.8 | 1.7 ± 0.5 | 6.3 ± 1 | 0.43 ± 0.13 |  |  |  |
| COC1c2cccc[c]2[Au-]2([S]C(=[N+](C)C)[S]2)[n+]2ccccc21.F[P-](F)(F)(F)(F)F (racemic) [4A] | 0.29 ± 0.04 | 1.4 ± 0.2 | 1.3 ± 0.3 | 4.7 ± 0.7 | 0.19 ± 0.03 | 0.16 ± 0.03 | 0.72 ± 0.21 |  |  |  |
| CC[N+](CC)=C1[S][Au-]2([S]1)[c]1ccccc1-c1cccc[n+]12.F[P-](F)(F)(F)(F)F (stereo not shown) [1B] | 0.19 ± 0.02 | 0.89 ± 0.13 | 0.55 ± 0.16 | 1.6 ± 0.3 | 0.085 ± 0.007 | 0.69 ± 0.21 | 0.53 ± 0.07 |  |  |  |
| F[P-](F)(F)(F)(F)F.c1cc[c]2c(c1)-c1cccc[n+]1[Au-]21[S]C(=[N+]2CCCC2)[S]1 (stereo not shown) [1F] | 0.2 ± 0.06 | 1.5 ± 0.1 | 1.7 ± 0.3 | 0.93 ± 0.28 | 0.19 ± 0.04 | 0.22 ± 0.06 | 0.18 ± 0.05 |  |  |  |
| CC[N+](CC)=C1[S][Au-]2([S]1)[c]1ccccc1C(=O)c1cccc[n+]12.F[P-](F)(F)(F)(F)F (stereo not shown) [3B] | 0.22 ± 0.01 | 1.2 | 0.93 ± 0.18 | 7.5 ± 1.4 | 1.4 ± 0.3 | 1.1 ± 0.3 | 1.4 ± 0.1 |  |  |  |
| F[P-](F)(F)(F)(F)F.c1cc[c]2c(c1)Cc1cccc[n+]1[Au-]21[S]C(=[N+]2CCCC2)[S]1 (stereo not shown) [2F] | 0.29 ± 0.04 | 1.1 ± 0.1 | 0.72 ± 0.12 | 0.97 ± 0.26 | 0.56 ± 0.1 | 1 ± 0.3 | 0.73 ± 0.12 | less than 10% | 5 | 9% |
| COC1c2cccc[c]2[Au-]2([S]C(=[N+]3CCCC3)[S]2)[n+]2ccccc21.F[P-](F)(F)(F)(F)F (racemic) [4F] | 0.32 ± 0.05 | 3.3 ± 0.8 | 1.4 ± 0.2 | 2.9 ± 0.3 | 0.34 ± 0.1 | 1.7 ± 0.5 | 0.74 ± 0.09 |  |  |  |
| CC[N+](=C1[S][Au-]2([S]1)[c]1ccccc1C(OC)c1cccc[n+]12)c1ccccc1.F[P-](F)(F)(F)(F)F (racemic) [4E] | 1.9 ± 0.4 | 3.2 ± 0.3 | 4.5 ± 0.5 | 4.3 ± 0.8 | 2.3 ± 0.6 | 5.3 ± 0.2 | 1.4 ± 0.3 | less than 10% | 5 | 7% |
| COC1c2cccc[c]2[Au-]2([S]C(=[N+]3CCCCCC3)[S]2)[n+]2ccccc21.F[P-](F)(F)(F)(F)F (racemic) [4G] | 0.23 ± 0.06 | 2.4 ± 0.7 | 1.6 ± 0.2 | 3.5 ± 0.7 | 1.8 ± 0.4 | 4.8 ± 0.5 | 2 ± 0.3 |  |  |  |
| CC[N+](CC)=C1[S][Au-]2([S]1)[c]1ccccc1Cc1cccc[n+]12.F[P-](F)(F)(F)(F)F (stereo not shown) [2B] | 0.3 ± 0.06 | 3 ± 0.4 | 2.2 ± 0.4 | 6.6 ± 1.7 | 0.42 ± 0.12 | 6.2 ± 1.7 | 0.53 ± 0.08 |  |  |  |
| F[P-](F)(F)(F)(F)F.c1ccc(C[N+](Cc2ccccc2)=C2[S][Au-]3([S]2)[c]2ccccc2Nc2cccc[n+]23)cc1 (stereo not shown) [5D] | 1.1 | 0.52 ± 0.08 | 0.95 ± 0.13 | 1.3 ± 0.3 | 1.1 ± 0.3 | 1.1 ± 0.2 | 1 ± 0.2 |  |  |  |
| CC[N+](=C1[S][Au-]2([S]1)[c]1ccccc1-c1cccc[n+]12)c1ccccc1.F[P-](F)(F)(F)(F)F (stereo not shown) [1E] | 0.84 ± 0.2 | 0.85 ± 0.1 | 2.3 ± 0.3 | 1.3 ± 0.2 | 1.2 ± 0.1 | 2 ± 0.3 | 0.69 ± 0.13 |  |  |  |
| F[P-](F)(F)(F)(F)F.c1ccc(C[N+](Cc2ccccc2)=C2[S][Au-]3([S]2)[c]2ccccc2-c2cccc[n+]23)cc1 (stereo not shown) [1D] | 1.9 ± 0.2 | 0.76 ± 0.1 | 1.5 ± 0.4 | 1.4 ± 0.2 | 1.4 ± 0.1 | 1.4 ± 0.3 | 1.3 ± 0.3 |  |  |  |
| C[N+](C)=C1[S][Au-]2([S]1)[c]1ccccc1Cc1cccc[n+]12.F[P-](F)(F)(F)(F)F (stereo not shown) [2A] | 0.17 ± 0.02 | 2.8 ± 0.2 | 1.2 | 8.4 ± 1 | 0.22 ± 0.06 | 0.26 ± 0.04 | 0.43 ± 0.08 |  |  |  |
| C[N+](C)=C1[S][Au-]2([S]1)[c]1ccccc1-c1cccc[n+]12.F[P-](F)(F)(F)(F)F (stereo not shown) [1A] | 0.088 ± 0.002 | 1.1 ± 0.3 | 1 ± 0.3 | 0.63 ± 0.15 | 1.3 ± 0.3 | 0.19 ± 0.04 | 0.31 ± 0.07 |  |  |  |
| F[P-](F)(F)(F)(F)F.O=C1c2cccc[c]2[Au-]2([S]C(=[N+]3CCCCCC3)[S]2)[n+]2ccccc21 (stereo not shown) [3G] | 0.35 ± 0.07 | 1.1 ± 0.2 | 1.2 ± 0.1 | 1.4 ± 0.2 | 1.8 ± 0.3 | 1.8 ± 0.2 | 1.5 ± 0.2 |  |  |  |
| CC[N+](=C1[S][Au-]2([S]1)[c]1ccccc1Nc1cccc[n+]12)c1ccccc1.F[P-](F)(F)(F)(F)F (stereo not shown) [5E] | 0.18 ± 0.01 | 0.44 ± 0.13 | 0.76 ± 0.18 | 0.34 ± 0.04 | 0.51 ± 0.1 | 0.4 ± 0.05 | 0.28 ± 0.08 |  |  |  |
| CC[N+](=C1[S][Au-]2([S]1)[c]1ccccc1Cc1cccc[n+]12)c1ccccc1.F[P-](F)(F)(F)(F)F (stereo not shown) [2E] | 2.7 ± 0.6 | 1.6 ± 0.2 | 2.3 ± 0.1 | 2 ± 0.6 | 1.6 ± 0.4 | 1.6 ± 0.2 | 3 ± 0.6 | less than 10% | 4 | remained unchanged |
